The results in this text go back to patent publication US4797400A, “Piperazine compounds and anti-ulcer composition containing the same” (Kanebo, Ltd., priority 1986, dated 1989).

Each structure is given as a SMILES string. Where a name gives a salt, the structure may show the parent alone.

Data set [1] relates to indomethacin-induced gastric ulcer. As to the kind of experiment: Inhibitory effect on indomethacin-induced gastric ulcer. It is filed as in vivo. The settings on record: Rattus norvegicus, po; male SD rats; indomethacin 30 mg/kg s.c.; ulcer index after 5 hours. As to the method: Inhibitory effect on indomethacin-induced gastric ulcer: It was done in the same manner as described by Okabe et al. [cf. Digestive Diseases and Science, 28, 1034 (1983)]. That is, male SD rats (weighing 180-220 g, 8 weeks age, 16 rats per group) were fasted for 24 hours, and to the rats was orally administered the test compound in the form of a solution in distilled water or a suspension in 1% aqueous gum arabic. After 15 minutes, to the rats was subcutaneously administered indomethacin (30 mg/kg) in the form of a solution in 3% aqueous sodium hydrogen carbonate solution. After 5 hours, the rats were sacrificed under ether anesthesia and the stomach was removed. The stomach was treated with formalin and the ulcer index as well as ED50 were determined in the same manner as described in Experiment 1.

Data set [2] concerns ethanol-induced gastric ulcer. As to the kind of experiment: Inhibitory effect on ethanol-induced gastric ulcer. The settings on record: Rattus norvegicus, po, 1 h; p.o.; male SD rats; ethanol (99.5%, 1 ml) orally 30 minutes after test compound; ulcer index after one hour. It is filed as in vivo, male Sprague-Dawley (SD) rats. As to the method: The compounds of this invention have potent activity for promoting the action of the defensive factor. The activity can be evaluated by the defensive action against ulcer induced by ethanol (e.g. inhibitory effect on ethanol-induced gastric ulcer) [cf. Hara, Nobuyuki et al., Pharmacometrics, 29, 557 (1985)]. […] Inhibitory effect on ethanol-induced gastric ulcer: Male Sprague-Dawley (SD) rats (weighing 180-220 g, 8 weeks age, 16 rats per group) were fasted for 24 hours, and to the rats was orally administered the test compound in the form of a solution in distilled water or a suspension in 1% aqueous gum arabic. After 30 minutes, ethanol (99.5%, 1 ml) was orally administered to the rats in the same manner as described by Robert et al. [cf. Gastroenterology, 77, 433 (1979)]. One hour after the administration of ethanol, the rats were sacrificed under ether anesthesia, and the stomach was removed. Into the stomach was poured 1% formalin (12 ml), and then the stomach was immersed in 1% formalin for 15 minutes. The stomach was cut along the greater curvature, and the length (mm) of each ulcer occured on the fundic mucosa was measured with a dissecting microscope. Sum of the length of ulcers in each rat was used as the ulcer index in each rat. In control rats to which no test compound was administered, the ulcer index was determined likewise, and the mean value (mean ulcer index) was calculated. […] A dose-response curve was drawn based on the ratio thus obtained and the dose of test compounds, and therefrom, the 50% effective dose (ED50) was determined.

The nature of another data set: Acute toxicity. The following applies: mouse, in vivo, po; male ddY mice; death observed for 7 days; Weil's method. As for the experimental part: To male ddY mice (weighing 18-22 g, 4 weeks age, […] mice per group) fasted overnight was orally administered the test compound in the form of a solution in distilled water or a suspension in 1% aqueous gum arabic. […] From the number of dead mice, LD50 was determined in the same manner as Weil's method.

Data set [3] deals with water-immersion stress-induced gastric ulcer. The data set is described as follows: Inhibitory effect on water-immersion stress-induced gastric ulcer. It is filed as in vivo. The following applies: Rattus norvegicus, po; male SD rats; water bath at 23° C., 17 hours. As for the experimental part: Inhibitory effect on water-immersion stress-induced gastric ulcer: Male SD rats (weighing 190-230 g, 8 weeks age, 16 rats per group) were fasted for 24 hours, and to the rats was orally administered the test compound in the form of a solution in distilled water or a suspension in 1% aqueous gum arabic. After 15 minutes, the rats were immersed vertically to the height of the xiphoid of the rats in water bath at 23° C. within a stress cage in the same manner as described by Takagi et al. [cf. Japanese Journal of Pharmacology, 18, 9 (1968)]. After 17 hours, the rats were sacrificed under ether anesthesia and the stomach was removed. The stomach was treated with formalin and the ulcer index as well as ED50 were determined in the same manner as described in Experiment 1.

As for `COc1ccc(OC(=O)CN2CCN(Cc3cc(OC)c(OC)c(OC)c3)CC2)cc1.O.O=C(O)/C=C/C(=O)O.O=C(O)/C=C/C(=O)O` [Compound 2, 1-[(4-Methoxyphenoxy)carbonylmethyl]-4-(3,4,5-trimethoxybenzyl)piperazine difumarate monohydrate], the ED50 (as a rule, the dose that gives a 50% effect, or the effect in half of the subjects) in data set [1] was determined as 11 mg/kg; in data set [2] it was 30 mg/kg; in data set [3], 123 mg/kg. The median lethal dose (LD50) (as a rule, the dose expected to kill half of the subjects tested) at 168 h in “Acute toxicity” was 4800 mg/kg.

For `NC[C@H]1CC[C@H](C(=O)Oc2ccc(CCC(=O)O)cc2)CC1` [Reference compound, Cetraxate hydrochloride, reference compound], the median effective dose (ED50) in data set [1] is 361 mg/kg; in data set [2], 112 mg/kg; in data set [3], above 1000 mg/kg. The LD50 at 168 h in the data set “Acute toxicity” was above 8000 mg/kg.

As for `COc1ccc(OC(=O)CN2CCN(Cc3ccc(OC)c(OC)c3OC)CC2)cc1.Cl.Cl` [Compound 1, 1-[(4-Methoxyphenoxy)carbonylmethyl]-4-(2,3,4-trimethoxybenzyl)piperazine dihydrochloride], the ED50 in data set [1] is 10 mg/kg; in data set [2], 27 mg/kg; in data set [3], 88 mg/kg. Also, the median lethal dose (LD50) at 168 h in “Acute toxicity” came to 4200 mg/kg.
